Where “and” joins values, the source holds several entries; their conditions need not be identical. Equal values may be shown once. Toxic doses and inconclusive results are not listed.
Test system: B6C3F1 mice, B16 melanoma ip, median survival T/C
Assay: NCI In Vivo Anticancer Drug Screen. Data for tumor model B16 Melanoma (intraperitoneal) in B6C3F1 mice
Conditions: endpoint: median survival time, higher = longer survival
Summary of the method: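 Readout: survival or tumor size in treated mice relative to vehicle controls (T/C). Model uses transplantable tumors grown in mice.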

[1] = dose: 50.0 mg/kg/injection, schedule: Q01DX009 (ip), vehicle: Klucel (hydroxypropylcellulose) (HPC)
[2] = dose: 1.56 mg/kg/injection, schedule: Q01DX009 (ip), vehicle: saline with Tween-80
[3] = dose: 6.25 mg/kg/injection, schedule: Q01DX009 (ip), vehicle: saline with Tween-80
[4] = dose: 12.5 mg/kg/injection, schedule: Q01DX009 (ip), vehicle: saline with Tween-80

In the case of O=C1c2c(O)ccc(O)c2C(=O)c2c(NCCNCCO)ccc(NCCNCCO)c21, the T/C (dose: 0.12 mg/kg/injection, schedule: Q01DX009 (ip), vehicle: water) is reported as 111 % of control, the T/C (dose: 0.12 mg/kg/injection, schedule: Q03HX024 (ip), vehicle: acid diluted with saline) is reported as 287 % of control and the T/C (dose: 0.13 mg/kg/injection, schedule: Q01DX009 (ip), vehicle: water) is reported as 184 % of control. The T/C (dose: 0.25 mg/kg/injection, schedule: Q01DX005 (ip), vehicle: saline) was 183 % of control, the T/C (dose: 0.25 mg/kg/injection, schedule: Q01DX005 (iv), vehicle: acid diluted with saline) was 102 % of control and the T/C (dose: 0.25 mg/kg/injection, schedule: Q01DX005 (iv), vehicle: saline) was 88 % of control. For the same molecule, the T/C (dose: 0.25 mg/kg/injection, schedule: Q01DX009 (ip), vehicle: acid diluted with saline) was 172 % of control, the T/C (dose: 0.25 mg/kg/injection, schedule: Q01DX009 (ip), vehicle: water) was 212 % of control [middle of 4 runs] and the T/C (dose: 0.25 mg/kg/injection, schedule: Q01DX009 (sc), vehicle: acid diluted with saline) was 101 % of control. For the same molecule, the T/C (dose: 0.25 mg/kg/injection, schedule: Q03HX008 (ip), vehicle: acid diluted with saline) was 206 % of control, the T/C (dose: 0.25 mg/kg/injection, schedule: Q03HX024 (ip), vehicle: acid diluted with saline) was 292 % of control and the T/C (dose: 0.31 mg/kg/injection, schedule: Q01DX009 (ip), vehicle: water) was 168 % of control. The T/C (dose: 0.5 mg/kg/injection, schedule: Q01DX005 (ip), vehicle: saline) was 206 % of control, the T/C (dose: 0.5 mg/kg/injection, schedule: Q01DX005 (iv), vehicle: acid diluted with saline) was 99 % of control and the T/C (dose: 0.5 mg/kg/injection, schedule: Q01DX005 (iv), vehicle: saline) was 93 % of control. The T/C (dose: 0.5 mg/kg/injection, schedule: Q01DX009 (ip), vehicle: acid diluted with saline) was 185 % of control, the T/C (dose: 0.5 mg/kg/injection, schedule: Q01DX009 (ip), vehicle: other) was 222 % of control and the T/C (dose: 0.5 mg/kg/injection, schedule: Q01DX009 (ip), vehicle: water) was 216 % of control and 326 % of control and 337 % of control. The T/C (dose: 0.5 mg/kg/injection, schedule: Q01DX009 (sc), vehicle: acid diluted with saline) was 121 % of control, the T/C (dose: 0.5 mg/kg/injection, schedule: Q03HX008 (ip), vehicle: acid diluted with saline) was 219 % of control and the T/C (dose: 0.62 mg/kg/injection, schedule: Q01DX009 (ip), vehicle: water) was 198 % of control and 234 % of control. The T/C (dose: 1.0 mg/kg/injection, schedule: Q01DX005 (ip), vehicle: saline) was 275 % of control, the T/C (dose: 1.0 mg/kg/injection, schedule: Q01DX005 (iv), vehicle: acid diluted with saline) was 99 % of control and the T/C (dose: 1.0 mg/kg/injection, schedule: Q01DX005 (iv), vehicle: saline) was 105 % of control. For the same molecule, the T/C (dose: 1.0 mg/kg/injection, schedule: Q01DX009 (ip), vehicle: acid diluted with saline) was 229 % of control, the T/C (dose: 1.0 mg/kg/injection, schedule: Q01DX009 (ip), vehicle: other) was 220 % of control and the T/C (dose: 1.0 mg/kg/injection, schedule: Q01DX009 (ip), vehicle: water) was 326 % of control [middle of 4 runs]. For the same molecule, the T/C (dose: 1.0 mg/kg/injection, schedule: Q01DX009 (oral), vehicle: acid diluted with saline) was 103 % of control, the T/C (dose: 1.0 mg/kg/injection, schedule: Q03HX008 (ip), vehicle: acid diluted with saline) was 284 % of control and the T/C (dose: 1.0 mg/kg/injection, schedule: Q04DX003 (ip), vehicle: acid diluted with saline) was 200 % of control. For the same molecule, the T/C (dose: 1.25 mg/kg/injection, schedule: Q01DX009 (ip), vehicle: water) was 238 % of control and 252 % of control, the T/C (dose: 2.0 mg/kg/injection, schedule: Q01DX005 (ip), vehicle: saline) was 275 % of control and the T/C (dose: 2.0 mg/kg/injection, schedule: Q01DX005 (iv), vehicle: acid diluted with saline) was 121 % of control. The T/C (dose: 2.0 mg/kg/injection, schedule: Q01DX005 (iv), vehicle: saline) was 100 % of control, the T/C (dose: 2.0 mg/kg/injection, schedule: Q01DX009 (ip), vehicle: acid diluted with saline) was 151 % of control and the T/C (dose: 2.0 mg/kg/injection, schedule: Q01DX009 (ip), vehicle: other) was 105 % of control. The T/C (dose: 2.0 mg/kg/injection, schedule: Q01DX009 (ip), vehicle: water) was 162 % of control and 187 % of control, the T/C (dose: 2.0 mg/kg/injection, schedule: Q01DX009 (oral), vehicle: acid diluted with saline) was 102 % of control and the T/C (dose: 2.0 mg/kg/injection, schedule: Q03HX008 (ip), vehicle: acid diluted with saline) was 292 % of control. For the same molecule, the T/C (dose: 2.0 mg/kg/injection, schedule: Q04DX003 (ip), vehicle: acid diluted with saline) was 224 % of control, the T/C (dose: 4.0 mg/kg/injection, schedule: Q01DX001 (ip), vehicle: acid diluted with saline) was 200 % of control and 254 % of control and the T/C (dose: 4.0 mg/kg/injection, schedule: Q01DX001 (iv), vehicle: acid diluted with saline) was 108 % of control. The T/C (dose: 4.0 mg/kg/injection, schedule: Q01DX009 (ip), vehicle: water) was 262 % of control, the T/C (dose: 4.0 mg/kg/injection, schedule: Q01DX009 (oral), vehicle: acid diluted with saline) was 96 % of control and the T/C (dose: 4.0 mg/kg/injection, schedule: Q04DX003 (ip), vehicle: acid diluted with saline) was 278 % of control. For the same molecule, the T/C (dose: 8.0 mg/kg/injection, schedule: Q01DX001 (ip), vehicle: acid diluted with saline) was 219 % of control and 260 % of control, the T/C (dose: 8.0 mg/kg/injection, schedule: Q01DX001 (iv), vehicle: acid diluted with saline) was 104 % of control and the T/C (dose: 8.0 mg/kg/injection, schedule: Q04DX003 (ip), vehicle: acid diluted with saline) was 92 % of control. The T/C (dose: 9.0 mg/kg/injection, schedule: Q01DX001 (ip), vehicle: acid diluted with saline) was 245 % of control and 98 % of control, the T/C (dose: 16.0 mg/kg/injection, schedule: Q01DX001 (ip), vehicle: acid diluted with saline) was 220 % of control and 292 % of control and the T/C (dose: 18.0 mg/kg/injection, schedule: Q01DX001 (ip), vehicle: acid diluted with saline) was 196 % of control. For the same molecule, the T/C (dose: 32.0 mg/kg/injection, schedule: Q01DX001 (ip), vehicle: acid diluted with saline) was 234 % of control.

For CC[n+]1c(-c2ccccc2)c2cc(N)ccc2c2ccc(N)cc21, the T/C (dose: 0.75 mg/kg/injection, schedule: Q01DX009 (ip), vehicle: water) was 97 % of control, the T/C (dose: 1.5 mg/kg/injection, schedule: Q01DX009 (ip), vehicle: water) was 104 % of control and the T/C (dose: 3.0 mg/kg/injection, schedule: Q01DX009 (ip), vehicle: water) was 117 % of control and 97 % of control. The T/C (dose: 6.0 mg/kg/injection, schedule: Q01DX009 (ip), vehicle: water) was 118 % of control and the T/C (dose: 12.0 mg/kg/injection, schedule: Q01DX009 (ip), vehicle: water) was 154 % of control.

In the case of Oc1c(Cl)cc(Cl)cc1C=NCCSc1ccc(Cl)cc1, the T/C (dose: 25.0 mg/kg/injection, schedule: Q01DX009 (ip), vehicle: Klucel (hydroxypropylcellulose) (HPC)) is reported as 98 % of control and 102 % of control, the T/C [1] is reported as 92 % of control and 102 % of control and the T/C (dose: 100.0 mg/kg/injection, schedule: Q01DX009 (ip), vehicle: Klucel (hydroxypropylcellulose) (HPC)) is reported as 113 % of control and 93 % of control. The T/C (dose: 200.0 mg/kg/injection, schedule: Q01DX009 (ip), vehicle: Klucel (hydroxypropylcellulose) (HPC)) was 92 % of control and 103 % of control.

CCOC1=Cc2c(oc3c(C(C)(C)C)cc(OCC)cc23)OC(C(C)(C)C)=C1 was tested, and the T/C [2] was 97 % of control and 107 % of control, the T/C (dose: 3.12 mg/kg/injection, schedule: Q01DX009 (ip), vehicle: saline with Tween-80) was 97 % of control and 104 % of control and the T/C [3] was 102 % of control. The T/C [4] was 97 % of control and 106 % of control, the T/C (dose: 25.0 mg/kg/injection, schedule: Q01DX009 (ip), vehicle: saline with Tween-80) was 113 % of control and 91 % of control and the T/C (dose: 50.0 mg/kg/injection, schedule: Q01DX009 (ip), vehicle: saline with Tween-80) was 89 % of control and 101 % of control.

In the case of Cc1cccc(Nc2c(N)nc(N)nc2N)c1, the T/C [1] is reported as 102 % of control and the T/C (dose: 75.0 mg/kg/injection, schedule: Q01DX009 (ip), vehicle: Klucel (hydroxypropylcellulose) (HPC)) is reported as 99 % of control.

For C=C1N(C)c2ccccc2C1(C)C, the T/C [3] was 110 % of control and the T/C [4] was 108 % of control.

In the case of CNC(=O)OCc1c(COC(=O)NC)c(-c2ccc(Cl)c(Cl)c2)n2c1Cc1ccccc1C2, the T/C (dose: 25.0 mg/kg/injection, schedule: Q01DX009 (ip), vehicle: distilled water + Tween-80) is reported as 165 % of control, the T/C (dose: 50.0 mg/kg/injection, schedule: Q01DX009 (ip), vehicle: distilled water + Tween-80) is reported as 194 % of control and 203 % of control and the T/C (dose: 100.0 mg/kg/injection, schedule: Q01DX009 (ip), vehicle: distilled water + Tween-80) is reported as 92 % of control.

For O=C(O)CCCc1ccc(N(CCCl)CCCl)cc1, the T/C [2] was 113 % of control and 106 % of control, the T/C (dose: 3.13 mg/kg/injection, schedule: Q01DX009 (ip), vehicle: saline with Tween-80) was 119 % of control and 103 % of control and the T/C [3] was 118 % of control. The T/C [4] was 98 % of control and 106 % of control.

For COC(COC(=O)N1CCN(C=O)CC1)C1=C(N2CC2)C(=O)C(C)=C(N2CC2)C1=O (stereo unspecified), the T/C (dose: 1.5 mg/kg/injection, schedule: Q01DX009 (ip), vehicle: saline) was 160 % of control and 194 % of control, the T/C (dose: 3.0 mg/kg/injection, schedule: Q01DX009 (ip), vehicle: saline) was 173 % of control and 234 % of control and the T/C (dose: 6.0 mg/kg/injection, schedule: Q01DX009 (ip), vehicle: saline) was 254 % of control.
